A word on the IC50: it is the midpoint of a concentration-inhibition curve.

SMILES strings stand for the structures. Counter-ions that a name gives are not always drawn.

T1 sequence (P04626 720-987 limits assumed): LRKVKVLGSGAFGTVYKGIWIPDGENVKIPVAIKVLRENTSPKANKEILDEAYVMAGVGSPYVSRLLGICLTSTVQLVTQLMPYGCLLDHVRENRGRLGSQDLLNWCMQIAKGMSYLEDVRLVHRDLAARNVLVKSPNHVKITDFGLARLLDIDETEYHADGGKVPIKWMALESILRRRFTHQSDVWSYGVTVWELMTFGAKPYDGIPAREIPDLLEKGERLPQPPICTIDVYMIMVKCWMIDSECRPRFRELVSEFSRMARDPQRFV

This assay has as its target T1, HER-2 (Homo sapiens, UniProt P04626).
T1 construct: expressed in mouse 3T3 (clone C7) cells; P00533 (Epidermal growth factor receptor)
The assay can be described thus: Assay for modulation of HER-2 activity in whole cells (ELISA). The format is cell-based. The conditions noted are these: EGFR/HER-2chimera/#T3-C7 cell lines, EGF stimulated; read-out: HER-2 kinase IC50. As to the method:
Using the following reagents, supplies, and method, the ability of compounds of the invention to affect the activity of HER-2 in whole cells in an ELISA format can be assigned.
EGFR/HER-2chimera/#T3-C7 cell lines are used for this assay. Choose dishes having 80-90% confluence for the experiment. Collect cells by trypsinization and centrifuge at 1000 rpm at room temperature for 5 minutes.
Resuspend cells in starve medium and count with trypan blue. Only viability above 90% is acceptable. Seed cells in starve medium at a density of 2,500 cells per well, 90 μL per well, in a 96 well microtiter plate. Incubate seeded cells in 5% CO2 at 37° C. overnight. Start the assay two days after seeding.
Samples are diluted directly into a polypropylene plate containing starve-DMEM (non-sterile is okay). This dilution will be 1:10 or greater, depending on the samples being screened. The same amount of DMSO is put into the control wells. […] are then transferred to the cell plate at a 1:10 dilution (10 μL of sample and media into 90 μL of starve media). The final DMSO concentration will be 1% or lower.
Ten samples are put into wells 2-11 of row A of the NUNC 96 well polypropylene plate. These wells contain straight starve-DMEM. For a 1:10 dilution, one would put 10 μL of drug into 90 μL of media. The rest of the wells (including the controls) will have a DMSO/media mixture. The percentage of DMSO in this mixture is determined by the first dilution factor, in this case 1:10. The DMSO concentration is therefore 10%. An equal amount of drug and media from row A is put into row B, containing DMSO and media. The same amount is then taken out and put into row C. This is repeated for all rows. These are 1:2 dilutions. All wells are then transferred to the cell plate at a 1:10 dilution (10 μL of sample and media into 90 μL of starve-DMEM. The final DMSO concentration will be 1% or lower. […]
After a 2 hour incubation with the drug, add prepared EGF ligand to cells at 50 μL per well, for a final concentration of 50 nM. Positive control wells (8) receive the same amount of EGF. […] Incubate at 37° C. for 10 minutes.
Remove drug, EGF, and DMEM by dumping in sink. Wash cells once with PBS.
Transfer HNTG* to cells, 100 μL per well. Place on ice for 5 minutes. Meanwhile, remove blocking buffer from ELISA plate and wash as described above. With a pipette tip securely fitted to a micropipettor, scrape cells from plate and homogenize cell material by repeatedly aspirating and dispensing the HNTG* lysis buffer. Transfer lysate to a coated, blocked, washed ELISA plate. Alternatively, one may use a Costar transfer cartridge to transfer lysate to the ELISA plate. Incubate, shaking, at room temperature for one hour.
Remove lysate by dumping in sink, then wash as described earlier. Transfer freshly diluted anti-phosphotyrosine (anti-Ptyr) antibody (1:3000 in TEST) to ELISA plate, 100 μL per well. Incubate, shaking, at room temperature, for 30 minutes.
Remove anti-Ptyr antibody by dumping in sink, then wash as described earlier. Transfer freshly diluted BIOSOURCE antibody to ELISA plate, (1:8000 in TEST), 100 μL per well. Incubate, shaking, at room temperature for 30 minutes.
Remove BIOSOURCE antibody by dumping in sink, then wash as described earlier. Transfer freshly prepared ABTS/H2O2 solution to ELISA plate, […]. Incubate 5-10 minutes while shaking. Remove any bubbles and if necessary, stop reaction with the addition of 100 μL of 0.2 M HCl per well.
Read assay on Dynatech MR7000 ELISA reader. Test Filter: […]; Reference Filter: […]. A preferred template for the placement of controls in this experiment is provided below: […]
Take `O=C1Nc2ncnc(N3CCCCC3)c2C1=Cc1ccc(C(=O)NCCN2CCOCC2)[nH]1` [Formula 5, 5-(6-OXO-4-PIPERIDIN-1-YL-6,7-DIHYDRO-PYRROLO[2,3-D]PYRIMIDIN-5-YLIDENEMETHYL)-1H-PYRROLE-2-CARBOXYLIC ACID (2-MORPHOLIN-4-YL-ETHYL)-AMIDE]: the half-inhibitory concentration (IC50) was found to be 61200 nM. The result for `Cc1cc(C(=O)NCCN2CCOCC2)[nH]c1C=C1C(=O)Nc2ncnc(Nc3ccc4c(ccn4Cc4ccccc4)c3)c21.Cl` [Formula 6, 5-[4-(1-BENZYL-1H-INDOL-5-YLAMINO)-6-OXO-6,7-DIHYDRO-PYRROLO[2,3-D]PYRIMIDIN-5-YLIDENEMETHYL]-4-METHYL-1H-PYRROLE-2-CARBOXYLIC ACID (2-MORPHOLIN-4-YL-ETHYL)-AMIDE HYDROCHLORIDE] reads 130 nM. In the case of `Cc1[nH]c(C=C2C(=O)Nc3ncnc(Nc4ccc(F)c(Cl)c4)c32)c(C)c1CCCN1CCOCC1` [Formula 7, 4-(3-CHLORO-4-FLUORO-PHENYLAMINO)-5-[3,5-DIMETHYL-4-(3-MORPHOLIN-4-YL-PROPYL)-1H-PYRROL-2-YLMETHYLENE]-5,7-DIHYDRO-PYRROLO[2,3-D]PYRIMIDIN-6-ONE HYDROCHLORIDE] it was 40 nM.

In the case of `Cc1cc(C)c(C=C2C(=O)Nc3ncnc(Nc4ccc(F)c(Cl)c4)c32)[nH]1` [Formula 9], the IC50 came out at 10 nM. In the case of `Cc1cc(C(=O)NCCN2CCOCC2)[nH]c1C=C1C(=O)Nc2ncnc(N3CCN(C)CC3)c21` [Formula 10, 4-METHYL-5-[4-(4-METHYL-PIPERAZIN-1-YL)-6-OXO-6,7-DIHYDRO-PYRROLO[2,3-D]PYRIMIDIN-5-YLIDENEMETHYL]-1H-PYRROLE-2-CARBOXYLIC ACID (2-MORPHOLIN-4-YL-ETHYL)-AMIDE] it was > 100000 nM; in that of `O=C1Nc2ncnc(Nc3ccc4c(ccn4Cc4ccccc4)c3)c2C1=Cc1ccc(C(=O)NCCN2CCOCC2)[nH]1` [Formula 12, 5-[4-(1-BENZYL-1H-INDOL-5-YLAMINO)-6-OXO-6,7-DIHYDRO-PYRROLO[2,3-D]PYRIMIDIN-5-YLIDENEMETHYL]-1H-PYRROLE-2-CARBOXYLIC ACID (2-MORPHOLIN-4-YL-ETHYL)-AMIDE HYDROCHLORIDE], 280 nM. For `O=C1Nc2ncnc(N3CCOCC3)c2C1=Cc1ccc(C(=O)NCCN2CCOCC2)[nH]1` [Formula 13, 5-(4-MORPHOLIN-4-YL-6-OXO-6,7-DIHYDRO-PYRROLO[2,3-D]PYRIMIDIN-5-YLIDENEMETHYL)-1H-PYRROLE-2-CARBOXYLIC ACID (2-MORPHOLIN-4-YL-ETHYL)-AMIDE], the IC50 was > 100000 nM. For `O=C1Nc2ncnc(Nc3ccc(F)c(Cl)c3)c2C1=Cc1ccc(C(=O)NCCN2CCOCC2)[nH]1` [Formula 15, 5-[4-(3-CHLORO-4-FLUORO-PHENYLAMINO)-6-OXO-6,7-DIHYDRO-PYRROLO[2,3-D]PYRIMIDIN-5-YLIDENEMETHYL]-1H-PYRROLE-2-CARBOXYLIC ACID (2-MORPHOLIN-4-YL-ETHYL)-AMIDE], the IC50 was found to be 130 nM. Take `C#Cc1cccc(Nc2ncnc3c2C(=Cc2ccc(C(=O)NCCN4CCOCC4)[nH]2)C(=O)N3)c1` [Formula 16, 5-[4-(3-ETHYNYL-PHENYLAMINO)-6-OXO-6,7-DIHYDRO-PYRROLO[2,3-D]PYRIMIDIN-5-YLIDENEMETHYL]-1H-PYRROLE-2-CARBOXYLIC ACID (2-MORPHOLIN-4-YL-ETHYL)-AMIDE HYDROCHLORIDE]: the IC50 turned out to be 1020 nM. The result for `C#Cc1cccc(Nc2ncnc3c2C(=Cc2[nH]c(C(=O)NCCN4CCOCC4)cc2C)C(=O)N3)c1` [Formula 17, 5-[4-(3-ETHYNYL-PHENYLAMINO)-6-OXO-6,7-DIHYDRO-PYRROLO[2,3-D]PYRIMIDIN-5-YLIDENEMETHYL]-4-METHYL-1H-PYRROLE-2-CARBOXYLIC ACID (2-MORPHOLIN-4-YL-ETHYL)-AMIDE] reads 100 nM; that for `C#Cc1cccc(Nc2ncnc3c2C(=Cc2[nH]c(C)c(CCCN4CCOCC4)c2C)C(=O)N3)c1` [Formula 18], 30 nM; that for `CC(C)c1cc(CCC(=O)O)c(/C=C2\C(=O)Nc3ncnc(Nc4ccc(F)c(Cl)c4)c32)[nH]1` [Formula 27], 640 nM. In the case of `Cc1c(C(=O)N2CCOCC2)c[nH]c1/C=C1\C(=O)Nc2ncnc(Nc3ccc(F)c(Cl)c3)c21` [Formula 31] it was 370 nM.

The values above are taken from patent US6908930B2, “4-substituted 7-AZA-indolin-2-ones and their use as protein kinase inhibitors” (Sugen, Inc., priority 1999, dated 2005).
